Laboratory results: paper PMC3192407, “Both Basic and Acidic Amino Acid Residues of IpTxa Are Involved in Triggering Substate of RyR1” (Journal of Biomedicine and Biotechnology, 2011)
Read-outs that look alike come from different tables or passages of the source. Bridge positions count the residues as written; N and C are the ends. Peptide text beside a SMILES is read from it.

What was measured:
[1] = molecular target: rabbit skeletal ryanodine receptor (RyR1) (rabbit) (UniProt P11716)
[2] = molecular target: T1, rabbit skeletal RyR1 (native RyR1 in HSR) (Oryctolagus cuniculus, UniProt P11716); assay: Planar lipid bilayer single-channel recording, native RyR1 in HSR; type: biochemical; details: for EC50: -30 mV
T1 construct: tested using native RyR1 in rabbit skeletal HSR; from tissue; host or cells: rabbit fast-twitch back and leg muscles (heavy SR vesicles)
Procedure: A heavy fraction of fragmented SR vesicles (HSR) containing junctional SR was prepared from rabbit fast-twitch back and leg muscles as described previously.
(§1) Single-channel recordings of rabbit skeletal RyR1 incorporated into planar lipid bilayers were carried out as described previously. Lipid bilayers, consisting of brain tissue phosphatidylethanolamine and phosphatidylserine (1 : 1) in decane (20 mg/mL) were formed across a hole of approximately 200 μm diameter. Thinning of the bilayer was monitored by bilayer capacitance. The basic composition of the cis/trans solution consisted of 300 mM cesium methanesulfonate, 10 mM Tris/Hepes (pH 7.2), 2 mM EGTA, and 1.998 mM CaCl2 ([Ca^2+]free = 10 μM). [Ca^2+]free was calculated using the “Chelator” program (Theo Schoenmaker). Cs^+ was selected as the charge carrier to ensure precise control of free [Ca^2+], to increase the channel conductance, and to avoid any contribution from potassium channels present in the SR membrane. Chloride channels were inhibited by using the impermeant anion methanesulfonate. Incorporation of ion channels was carried out as described by Miller and Racker and confirmed by recording the characteristically high single-channel conductance of RyRs. The trans side was maintained at ground and the cis side was clamped at −30 mV relative to the ground. After addition of the IpTxa to the cis chamber, the single channel data were collected at −30 mV for 2–5 min. […] Recordings were filtered with an 8-pole low-pass Bessel filter at 1 kHz and digitalized through a Digidata 1200 series interface (Axon Instruments). Data acquisition and analysis were done with the Axon Instruments software, pClamp v7.0.
(§2) Data were analyzed using the Hill equation described previously:
(§3) (1) Psubstate=(Psubstate, max )/[1+(EC50/[IpTxa])^nH] orPo=(Po, max )/[1+(EC50/[IpTxa])^nH], where (Po, max ) is the Po observed at saturating concentrations of IpTxa, EC50 is the IpTxa concentration for which 50% of Po, max is obtained and nH is the Hill coefficient. Also, Psubstate, max is the Psubstate observed at saturating concentrations of IpTxa, EC50 is the IpTxa concentration for which 50% of Psubstate, max is obtained, and nH is the Hill coefficient. The probability of full open state of the channel (Po) was defined as the ratio of the time spent in the open state to the total time exclusive of time spent in the substate. The probability to obtain substate (Psubstate) was calculated as the time spent in the substate divided by a given total recording time. The durations of the substate were obtained by manual positioning of the cursors and constructing all point histograms. Mean duration of substate was measured by total substate time divided by total substate frequencies.
(§4) Results are given as means ± SE. Significant differences were analyzed using Student's t-test. Differences were considered to be significant when P < 0.05. The fitting of the data to the graphs were carried out using the software, Origin v7.
To examine how IpTxa modifies RyR1 activity, RyR1 in HSR incorporated in planar lipid bilayers was tested in the presence or absence of synthetic wild-type IpTxa. The chamber solutions for both cis (cytosolic) and trans (luminal) sides included 300 mM cesium methanesulfonate and 10 mM Tris-Hepes (pH 7.2). 10 μM free Ca^2+ was added to the cis side to activate the incorporated RyR1. After an addition of IpTxa to the cis chamber, the single channel gating properties were recorded at a holding potential of −30 mV for over 2 min at each toxin concentration. […] To examine the effects of IpTxa on full open state, we calculated the probability to obtain the full open state (Po) as the time spent in the open state divided by the total time exclusive of the time spent in the substate. The time for recorded Po was in the range of 30 s–2 min. […] The steady-state Po was 0.18 ± 0.02 at 10 μM Ca^2+. […]

purified rabbit RyR1 = molecular target: T2, purified rabbit RyR1 (Oryctolagus cuniculus, UniProt P11716); assay: Planar lipid bilayer single-channel recording, purified RyR1; type: biochemical; details: for EC50 for Psubstate compared with wild type (in words): purified RyR1, 6-100 nM; for EC50: purified RyR1, toxin cis, 6-100 nM, -30 mV, 10 μM Ca^2+, Hill fit, means ± SE of 4–10 experiments, read-out: EC50 for Psubstate
T2 construct: we added IpTxa to purified RyR1 incorporated into planar lipid bilayers; from tissue; host or cells: rabbit skeletal muscle (inferred; purified from HSR)
Procedure: as §1, §2, §3, §4
To determine whether the activation of native RyR1 in SR by IpTxa was due to a direct activation of RyR1 or due to an indirect activation through other proteins associated to RyR1, we added IpTxa to purified RyR1 incorporated into planar lipid bilayers (Figure 3(a)). […] Purity of RyR1 at the final purification step was verified by Coomassie blue staining (Supplementary Figure 2).
Figure 3 Effects of IpTxa on purified rabbit RyR1 incorporated in planar lipid bilayers. (a) Single channel activity of purified RyR1 incorporated in planar lipid bilayers at 10 μM Ca^2+ with or without IpTxa (6–100 nM) was recorded. Single channel currents are shown as downward deflections from the closed level (indicated by c). The holding potential was −30 mV. (b) The plot of Po of purified RyR1 versus various concentrations of IpTxa is shown. (c) The plot of Psubstate of purified RyR1 versus various concentrations of IpTxa is shown. The results are shown as the means ± SE for 7 experiments. […]

RyR1 [3] = details: cited from earlier work
Excerpt: Imperatoxin A (IpTxa) from the African scorpion Pandinus imperator is a high-affinity modulator of skeletal RyR (RyR1). […] Stretches of these positively charged residues tend to adopt different secondary structures such as α-helical structure for Peptide A and β-sheet structure for IpTxa and MCa. However, their orientation on the surface of the peptides could be similar. […] Two toxins induced different degree of substate of RyR1 at +40 mV holding potential (28% and 48% of full conductance state for IpTxa and MCa, resp.). […] Thus, the di ...

RyR1 [4] = details: ref [16], [18]; cited from earlier work
Excerpt: Imperatoxin A (IpTxa) from the African scorpion Pandinus imperator is a high-affinity modulator of skeletal RyR (RyR1). […] The inconsistency between occurrence of substate and ryanodine binding to RyR1 affected by K8A or T ...

[5] = native RyR1 in SR, toxin cis, 6-100 nM, [Ca^2+]free 10 μM, pH 7.2, Hill fit, means ± SE of 3–9 experiments, read-out: EC50 for Psubstate

T2 sequence (P11716 whole entry): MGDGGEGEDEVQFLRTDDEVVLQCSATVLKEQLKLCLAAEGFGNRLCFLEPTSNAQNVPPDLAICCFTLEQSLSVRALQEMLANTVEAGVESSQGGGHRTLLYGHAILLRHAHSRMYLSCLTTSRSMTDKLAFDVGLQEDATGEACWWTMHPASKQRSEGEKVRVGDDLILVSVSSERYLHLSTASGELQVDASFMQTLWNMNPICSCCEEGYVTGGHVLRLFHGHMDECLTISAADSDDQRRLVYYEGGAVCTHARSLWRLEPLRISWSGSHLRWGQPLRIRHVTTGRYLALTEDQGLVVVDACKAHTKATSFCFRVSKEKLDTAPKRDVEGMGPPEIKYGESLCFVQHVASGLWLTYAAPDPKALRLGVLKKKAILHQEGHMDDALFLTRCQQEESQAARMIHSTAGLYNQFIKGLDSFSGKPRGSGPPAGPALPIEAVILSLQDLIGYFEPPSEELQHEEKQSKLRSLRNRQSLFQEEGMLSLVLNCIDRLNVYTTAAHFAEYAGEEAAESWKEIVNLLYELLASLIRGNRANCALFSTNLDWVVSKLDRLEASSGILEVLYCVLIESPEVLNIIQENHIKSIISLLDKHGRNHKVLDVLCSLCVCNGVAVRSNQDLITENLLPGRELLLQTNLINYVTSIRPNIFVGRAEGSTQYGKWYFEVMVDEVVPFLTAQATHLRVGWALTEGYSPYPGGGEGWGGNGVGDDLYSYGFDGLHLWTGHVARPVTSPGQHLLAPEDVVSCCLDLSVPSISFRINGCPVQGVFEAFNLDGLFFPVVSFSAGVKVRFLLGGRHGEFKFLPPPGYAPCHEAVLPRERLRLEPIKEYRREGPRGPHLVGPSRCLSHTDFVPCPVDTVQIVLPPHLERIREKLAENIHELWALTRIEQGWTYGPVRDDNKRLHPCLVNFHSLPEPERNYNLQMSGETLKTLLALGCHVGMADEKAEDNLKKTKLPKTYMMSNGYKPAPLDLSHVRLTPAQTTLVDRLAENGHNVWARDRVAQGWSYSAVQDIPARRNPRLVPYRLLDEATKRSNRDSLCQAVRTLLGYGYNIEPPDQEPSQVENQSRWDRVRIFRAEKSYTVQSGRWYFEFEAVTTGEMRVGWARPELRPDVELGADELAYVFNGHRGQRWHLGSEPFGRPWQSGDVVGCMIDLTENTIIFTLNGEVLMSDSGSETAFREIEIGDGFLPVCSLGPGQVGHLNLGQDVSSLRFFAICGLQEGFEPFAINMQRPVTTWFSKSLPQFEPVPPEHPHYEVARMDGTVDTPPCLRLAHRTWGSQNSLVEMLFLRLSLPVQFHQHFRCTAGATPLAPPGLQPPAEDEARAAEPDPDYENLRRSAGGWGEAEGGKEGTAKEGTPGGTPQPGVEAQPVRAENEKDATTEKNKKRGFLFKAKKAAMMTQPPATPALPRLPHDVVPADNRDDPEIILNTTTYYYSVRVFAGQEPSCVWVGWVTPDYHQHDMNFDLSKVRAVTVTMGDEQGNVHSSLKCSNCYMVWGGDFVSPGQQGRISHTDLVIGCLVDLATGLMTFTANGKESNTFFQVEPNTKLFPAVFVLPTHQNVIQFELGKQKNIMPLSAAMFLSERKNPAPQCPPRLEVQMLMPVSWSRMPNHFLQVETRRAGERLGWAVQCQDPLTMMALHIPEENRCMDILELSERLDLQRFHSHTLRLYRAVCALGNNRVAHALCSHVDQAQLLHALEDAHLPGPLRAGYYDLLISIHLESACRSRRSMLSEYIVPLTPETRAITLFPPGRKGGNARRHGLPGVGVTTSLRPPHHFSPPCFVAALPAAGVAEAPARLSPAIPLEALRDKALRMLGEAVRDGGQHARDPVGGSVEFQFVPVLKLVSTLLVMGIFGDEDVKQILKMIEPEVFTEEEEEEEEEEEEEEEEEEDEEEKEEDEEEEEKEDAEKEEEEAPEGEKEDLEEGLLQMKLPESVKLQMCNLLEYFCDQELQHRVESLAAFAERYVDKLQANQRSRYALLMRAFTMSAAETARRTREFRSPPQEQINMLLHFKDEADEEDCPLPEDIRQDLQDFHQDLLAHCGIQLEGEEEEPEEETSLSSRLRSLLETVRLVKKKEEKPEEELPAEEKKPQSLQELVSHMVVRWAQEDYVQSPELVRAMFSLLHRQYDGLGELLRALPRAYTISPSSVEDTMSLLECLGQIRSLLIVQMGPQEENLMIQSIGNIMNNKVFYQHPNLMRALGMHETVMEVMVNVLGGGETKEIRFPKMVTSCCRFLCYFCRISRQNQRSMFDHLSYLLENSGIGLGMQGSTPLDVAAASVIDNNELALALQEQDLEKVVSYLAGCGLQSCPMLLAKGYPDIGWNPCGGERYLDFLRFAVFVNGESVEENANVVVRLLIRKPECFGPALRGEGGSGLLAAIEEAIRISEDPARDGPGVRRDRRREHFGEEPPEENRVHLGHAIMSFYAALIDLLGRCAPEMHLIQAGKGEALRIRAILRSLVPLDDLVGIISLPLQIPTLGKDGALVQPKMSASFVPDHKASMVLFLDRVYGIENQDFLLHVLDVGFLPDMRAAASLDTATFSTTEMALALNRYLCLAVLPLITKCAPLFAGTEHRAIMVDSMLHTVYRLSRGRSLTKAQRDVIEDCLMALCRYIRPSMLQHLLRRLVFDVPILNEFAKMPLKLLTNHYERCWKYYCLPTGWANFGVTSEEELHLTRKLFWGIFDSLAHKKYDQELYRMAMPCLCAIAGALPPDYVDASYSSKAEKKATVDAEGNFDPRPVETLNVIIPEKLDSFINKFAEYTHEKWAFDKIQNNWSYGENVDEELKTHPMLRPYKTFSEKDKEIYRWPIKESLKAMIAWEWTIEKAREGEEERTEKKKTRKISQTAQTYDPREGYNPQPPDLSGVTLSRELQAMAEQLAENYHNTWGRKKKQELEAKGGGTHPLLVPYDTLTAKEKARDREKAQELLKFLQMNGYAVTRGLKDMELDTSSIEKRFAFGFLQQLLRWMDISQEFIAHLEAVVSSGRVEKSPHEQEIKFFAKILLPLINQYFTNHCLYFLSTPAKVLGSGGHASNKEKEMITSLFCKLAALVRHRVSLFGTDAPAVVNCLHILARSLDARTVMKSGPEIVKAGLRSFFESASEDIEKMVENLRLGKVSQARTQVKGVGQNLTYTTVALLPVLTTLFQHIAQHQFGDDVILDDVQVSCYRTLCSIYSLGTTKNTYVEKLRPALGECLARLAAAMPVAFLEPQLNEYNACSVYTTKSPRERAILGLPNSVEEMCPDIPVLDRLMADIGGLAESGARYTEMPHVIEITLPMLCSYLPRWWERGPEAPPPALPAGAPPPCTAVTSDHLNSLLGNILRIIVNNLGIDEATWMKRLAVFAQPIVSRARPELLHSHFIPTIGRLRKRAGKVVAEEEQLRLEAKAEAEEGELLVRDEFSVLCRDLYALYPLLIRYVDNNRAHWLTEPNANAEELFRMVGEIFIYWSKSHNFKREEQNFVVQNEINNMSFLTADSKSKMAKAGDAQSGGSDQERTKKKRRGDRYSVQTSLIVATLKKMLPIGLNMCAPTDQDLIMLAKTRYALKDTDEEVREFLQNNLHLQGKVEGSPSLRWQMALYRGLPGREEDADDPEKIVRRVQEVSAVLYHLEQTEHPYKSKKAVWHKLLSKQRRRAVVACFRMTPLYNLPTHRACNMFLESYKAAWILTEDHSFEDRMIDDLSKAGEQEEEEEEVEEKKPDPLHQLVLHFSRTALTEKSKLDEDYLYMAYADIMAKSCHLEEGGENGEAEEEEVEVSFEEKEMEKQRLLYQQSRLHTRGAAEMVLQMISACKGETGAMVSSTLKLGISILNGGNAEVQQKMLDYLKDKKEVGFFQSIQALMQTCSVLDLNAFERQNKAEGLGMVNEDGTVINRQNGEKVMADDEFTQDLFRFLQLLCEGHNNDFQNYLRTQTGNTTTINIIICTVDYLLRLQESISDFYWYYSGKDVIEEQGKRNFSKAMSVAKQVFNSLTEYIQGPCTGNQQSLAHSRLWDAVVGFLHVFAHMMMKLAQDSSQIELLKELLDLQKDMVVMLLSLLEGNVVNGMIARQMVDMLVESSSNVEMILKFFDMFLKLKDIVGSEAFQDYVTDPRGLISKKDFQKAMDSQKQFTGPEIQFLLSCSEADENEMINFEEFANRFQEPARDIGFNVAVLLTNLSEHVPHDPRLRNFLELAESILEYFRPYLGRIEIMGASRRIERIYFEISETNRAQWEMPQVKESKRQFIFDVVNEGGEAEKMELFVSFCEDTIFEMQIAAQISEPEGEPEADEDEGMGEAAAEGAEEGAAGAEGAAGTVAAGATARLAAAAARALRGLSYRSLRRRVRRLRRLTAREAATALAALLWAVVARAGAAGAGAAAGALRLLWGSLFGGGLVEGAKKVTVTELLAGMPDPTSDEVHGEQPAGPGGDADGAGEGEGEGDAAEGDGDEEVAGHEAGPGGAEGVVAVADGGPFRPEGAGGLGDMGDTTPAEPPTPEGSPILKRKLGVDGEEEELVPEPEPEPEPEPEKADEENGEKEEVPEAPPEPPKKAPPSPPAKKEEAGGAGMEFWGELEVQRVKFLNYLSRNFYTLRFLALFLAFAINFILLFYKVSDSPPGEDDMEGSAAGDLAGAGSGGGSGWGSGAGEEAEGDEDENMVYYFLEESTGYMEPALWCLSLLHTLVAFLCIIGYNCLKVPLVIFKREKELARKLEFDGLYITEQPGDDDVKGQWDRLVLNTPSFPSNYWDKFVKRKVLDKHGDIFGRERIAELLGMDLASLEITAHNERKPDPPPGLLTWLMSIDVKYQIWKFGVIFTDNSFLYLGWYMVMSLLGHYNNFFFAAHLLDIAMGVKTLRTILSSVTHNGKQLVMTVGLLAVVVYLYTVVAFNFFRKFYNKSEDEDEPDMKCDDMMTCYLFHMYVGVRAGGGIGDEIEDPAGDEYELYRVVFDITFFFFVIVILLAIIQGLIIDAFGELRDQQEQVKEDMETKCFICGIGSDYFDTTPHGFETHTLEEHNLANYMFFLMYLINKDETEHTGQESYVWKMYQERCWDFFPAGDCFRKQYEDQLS
T1 sequence (P11716 whole entry): as above

Molecule | mean duration of substate of native RyR1 in HSR at 30 nM toxin [1] [s] | EC50 [2, 5] [nM] | EC50 (purified rabbit RyR1) [nM] | other results
Imperatoxin A (IpTxa), synthetic wild type (from UniProt P59868 1-33) (peptide) | 4.56 |  |  | 
CC(C)C[C@@H]1NC(=O)[C@H](Cc2c[nH]cn2)NC(=O)[C@@H]2CCCN2C(=O)[C@H](CC(C)C)NC(=O)[C@@H](NC(=O)[C@H](CC(=O)O)NC(=O)CN)CSSC[C@@H]2NC(=O)[C@@H]3CSSC[C@@H](C(=O)N[C@@H](CCCNC(=N)N)C(=O)O)NC(=O)[C@H](CCCNC(=N)N)NC(=O)[C@H](C)NC(=O)[C@H](CCC(=O)O)NC(=O)[C@H](C)NC(=O)[C@H](CC(N)=O)NC(=O)[C@H]([C@@H](C)O)NC(=O)CNC(=O)[C@H](CCCNC(=N)N)NC(=O)[C@H](CCCNC(=N)N)NC(=O)[C@H](CCCCN)NC(=O)[C@H](CSSC[C@H](NC(=O)[C@H](CCCNC(=N)N)NC(=O)[C@H](CCCCN)NC1=O)C(=O)N[C@@H](CCCCN)C(=O)N[C@@H](C)C(=O)N[C@@H](CC(=O)O)C(=O)N[C@@H](CC(N)=O)C(=O)N[C@@H](CC(=O)O)C(=O)N3)NC(=O)[C@H](CCCCN)NC(=O)[C@H](CCCCN)NC(=O)CNC2=O [K30A] (H-GDCLPHLKRCKADNDCCGKKCKRRGTNAEARCR-OH; disulfide 3-17, 10-21, 16-32) |  | 16.7 ± 2.86 | 15.7 ± 5.99 | EC50 for Psubstate compared with wild type (in words) (purified rabbit RyR1): without a significant change of EC50
CC(C)C[C@@H]1NC(=O)[C@H](Cc2c[nH]cn2)NC(=O)[C@@H]2CCCN2C(=O)[C@H](CC(C)C)NC(=O)[C@@H](NC(=O)[C@H](CC(=O)O)NC(=O)CN)CSSC[C@@H]2NC(=O)[C@@H]3CSSC[C@@H](C(=O)N[C@@H](CCCNC(=N)N)C(=O)O)NC(=O)[C@H](CCCNC(=N)N)NC(=O)[C@H](CCCCN)NC(=O)[C@H](CCC(=O)O)NC(=O)[C@H](C)NC(=O)[C@H](CC(N)=O)NC(=O)[C@H]([C@@H](C)O)NC(=O)CNC(=O)[C@H](CCCNC(=N)N)NC(=O)[C@H](CCCNC(=N)N)NC(=O)[C@H](CCCCN)NC(=O)[C@H](CSSC[C@H](NC(=O)[C@H](CCCNC(=N)N)NC(=O)[C@H](C)NC1=O)C(=O)N[C@@H](CCCCN)C(=O)N[C@@H](C)C(=O)N[C@@H](CC(=O)O)C(=O)N[C@@H](CC(N)=O)C(=O)N[C@@H](CC(=O)O)C(=O)N3)NC(=O)[C@H](CCCCN)NC(=O)[C@H](CCCCN)NC(=O)CNC2=O [K8A] (H-GDCLPHLARCKADNDCCGKKCKRRGTNAEKRCR-OH; disulfide 3-17, 10-21, 16-32) |  | 5.7 ± 2.86 | 5.29 ± 4.84 | EC50 of Psubstate compared with wild type (in words) ([2]; native RyR1 (Figure 2(b)), Figure 5(b), purified RyR1, also cited in sentence): dramatically decreased EC50 of Psubstate
maurocalcine [MCa] |  |  |  | substate current amplitude, % of full conductance state (RyR1 [3]; +40 mV holding potential, ref [10], [13]): 48%; substate current amplitude, % of full conductance (RyR1 [3]; long-lasting substate of RyR1, ref [16], [18]): 48%; modification of channel gating by MCa and peptide A together (in words) (RyR1 [3]; ref [16]): in an additive, but not competitive, manner; [^3H]ryanodine binding (in words) (RyR1 [4]): strongly enhances [^3H]ryanodine binding to RyR1
IpTxa R9A (from UniProt P59868 1-33) (peptide) | 5.86 |  |  | 
CC(C)C[C@@H]1NC(=O)[C@H](Cc2c[nH]cn2)NC(=O)[C@@H]2CCCN2C(=O)[C@H](CC(C)C)NC(=O)[C@@H](NC(=O)[C@H](CC(=O)O)NC(=O)CN)CSSC[C@@H]2NC(=O)[C@@H]3CSSC[C@@H](C(=O)N[C@@H](CCCNC(=N)N)C(=O)O)NC(=O)[C@H](CCCNC(=N)N)NC(=O)[C@H](CCCCN)NC(=O)[C@H](CCC(=O)O)NC(=O)[C@H](C)NC(=O)[C@H](CC(N)=O)NC(=O)[C@H]([C@@H](C)O)NC(=O)CNC(=O)[C@H](CCCNC(=N)N)NC(=O)[C@H](CCCNC(=N)N)NC(=O)[C@H](CCCCN)NC(=O)[C@H](CSSC[C@H](NC(=O)[C@H](CCCNC(=N)N)NC(=O)[C@H](CCCCN)NC1=O)C(=O)N[C@@H](CCCCN)C(=O)N[C@@H](C)C(=O)N[C@@H](CC(=O)O)C(=O)N[C@@H](CC(N)=O)C(=O)N[C@@H](CC(=O)O)C(=O)N3)NC(=O)[C@H](CCCCN)NC(=O)[C@H](CCCCN)NC(=O)CNC2=O [Wild type, Imperatoxin A] (H-GDCLPHLKRCKADNDCCGKKCKRRGTNAEKRCR-OH; disulfide 3-17, 10-21, 16-32) |  | 23.3 ± 2.37 | 17.1 ± 2.31 | EC50 ([2]; native RyR1, toxin cis, 10 μM Ca^2+, Hill fit, means ± SE of ten experiments, read-out: EC50 for Po): 17.4 ± 4.67 nM
IpTxa D2A (from UniProt P59868 1-33) (peptide) | 2.96 |  |  | 
CC(C)C[C@@H]1NC(=O)[C@H](Cc2c[nH]cn2)NC(=O)[C@@H]2CCCN2C(=O)[C@H](CC(C)C)NC(=O)[C@@H](NC(=O)[C@H](CC(=O)O)NC(=O)CN)CSSC[C@@H]2NC(=O)[C@@H]3CSSC[C@@H](C(=O)N[C@@H](C)C(=O)O)NC(=O)[C@H](CCCNC(=N)N)NC(=O)[C@H](CCCCN)NC(=O)[C@H](CCC(=O)O)NC(=O)[C@H](C)NC(=O)[C@H](CC(N)=O)NC(=O)[C@H]([C@@H](C)O)NC(=O)CNC(=O)[C@H](CCCNC(=N)N)NC(=O)[C@H](CCCNC(=N)N)NC(=O)[C@H](CCCCN)NC(=O)[C@H](CSSC[C@H](NC(=O)[C@H](CCCNC(=N)N)NC(=O)[C@H](CCCCN)NC1=O)C(=O)N[C@@H](CCCCN)C(=O)N[C@@H](C)C(=O)N[C@@H](CC(=O)O)C(=O)N[C@@H](CC(N)=O)C(=O)N[C@@H](CC(=O)O)C(=O)N3)NC(=O)[C@H](CCCCN)NC(=O)[C@H](CCCCN)NC(=O)CNC2=O [R33A] (H-GDCLPHLKRCKADNDCCGKKCKRRGTNAEKRCA-OH; disulfide 3-17, 10-21, 16-32) |  | 16 ± 5.65 | 19.3 ± 1.05 | EC50 for Psubstate compared with wild type (in words) (purified rabbit RyR1): without a significant change of EC50
